Assay results from patent US12428415B2, “Matriptase 2 inhibitors and uses thereof” (Disc Medicine, Inc., priority 2018, dated 2025).

Each compound was assayed against T1, Human Recombinant Matriptase 2 (Homo sapiens, UniProt Q8IU80) (assay: Matriptase 2 fluorescence based inhibition assay, Method B (50 mM TRIS pH 7.5, 150 mM NaCl, 0.01% gelatin)). Settings: 1 uM compound; Assay Used = B.
T1 construct: purchased Enzo Life Sciences (an in-house preparation was also used) ALX-201-752-1
T1 sequence (Q8IU80 1-811): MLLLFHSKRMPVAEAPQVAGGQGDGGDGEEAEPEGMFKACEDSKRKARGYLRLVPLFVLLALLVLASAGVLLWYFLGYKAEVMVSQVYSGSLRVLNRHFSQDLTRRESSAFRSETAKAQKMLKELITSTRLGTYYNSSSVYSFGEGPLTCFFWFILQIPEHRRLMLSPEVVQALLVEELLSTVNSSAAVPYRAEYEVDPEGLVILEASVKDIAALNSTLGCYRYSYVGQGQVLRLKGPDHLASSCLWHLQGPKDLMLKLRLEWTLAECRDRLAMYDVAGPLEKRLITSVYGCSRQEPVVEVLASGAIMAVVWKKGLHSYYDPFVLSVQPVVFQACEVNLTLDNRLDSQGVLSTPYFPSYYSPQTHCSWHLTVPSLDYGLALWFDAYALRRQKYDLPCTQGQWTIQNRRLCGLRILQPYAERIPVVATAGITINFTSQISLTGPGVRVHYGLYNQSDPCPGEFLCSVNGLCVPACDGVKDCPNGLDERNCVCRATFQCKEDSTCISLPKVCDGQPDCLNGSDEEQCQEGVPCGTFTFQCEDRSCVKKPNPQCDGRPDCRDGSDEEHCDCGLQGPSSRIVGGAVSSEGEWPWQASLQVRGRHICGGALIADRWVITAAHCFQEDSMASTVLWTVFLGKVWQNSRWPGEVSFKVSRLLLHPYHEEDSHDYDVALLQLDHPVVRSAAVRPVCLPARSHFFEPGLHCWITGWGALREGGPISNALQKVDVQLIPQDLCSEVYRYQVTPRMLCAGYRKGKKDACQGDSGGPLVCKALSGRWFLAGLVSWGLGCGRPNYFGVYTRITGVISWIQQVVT
Format: biochemical
How it was run: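 Fluorogenic substrate Boc-Gln-Ala-Arg-7-amido-4-methylcoumarin (100 μM) cleavage read at Ex 360/Em 480 nm 60 min after addition, following 30 min enzyme–compound preincubation at 25° C. Enzyme was 7 nM commercial or 15 nM in-house; DMSO 1%. IC50s fitted by non-linear sigmoidal regression.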
With `CN(C)C(=O)c1cc2ccc(C(=N)N)cc2n1Cc1cccc2ccccc12` [Compound I-482] the “Mar-2 % inhibition at 1 uM” value was “B (B represents 25%≤I≤50%)”. In the case of `N=C(N)c1ccc2cc(C(=O)O)n(-c3ccc4ccccc4c3)c2c1` [Compound I-488, 6-carbamimidoyl-1-(naphthalen-2-yl)-1H-indole-2-carboxylic Acid], the “Mar-2 % inhibition at 1 uM” value is reported as “A (A represents 0%≤I≤25%)”.

Same assay, conditions: 1 uM compound; Assay Used = B (Method B); read-out: Mar-2 % inhibition at 1 uM
`N=C(N)c1ccc2cc(C(=O)O)n(Cc3c[nH]c4ccccc34)c2n1` [Compound I-667] gave an inhibition at 1 µM of 25 to 50%. For `N=C(N)c1cc2c(cn1)cc(C(=O)NC1CCC(N)CC1)n2Cc1cccc2ccccc12` (stereo not drawn) [Compound I-690], the inhibition at 1 µM was 75 to 100%. `NC(=NO)c1ccc2cc(C(=O)O)n(Cc3cccc4ccccc34)c2n1` [Compound I-650] showed an inhibition at 1 µM of 0 to 25%. For `N=C(N)c1ccc2cc(C(=O)O)n(Cc3cc(Oc4ccccc4)cc4ccccc34)c2n1` [Compound I-732], the inhibition at 1 µM was 25 to 50%. In the case of `N=C(N)c1ccc2cc(C(=O)N[C@H]3CC[C@H](N)CC3)n(Cc3cc(Oc4ncccn4)cc4ccccc34)c2c1` [Compound I-670], the inhibition at 1 µM is reported as 75 to 100%. `CCOC(=O)c1cc2ccc(C(=N)NC(=O)OCC(C)C)cc2n1Cc1cc(Oc2ncccn2)cc2ccccc12` [Compound I-607] showed an inhibition at 1 µM of 0 to 25%. `CO/N=C(\N)c1ccc2cc(C(=O)OC)n(Cc3cccc4ccccc34)c2n1` [Compound I-697, Methyl (Z)-6-(N′-methoxycarbamimidoyl)-1-(naphthalen-1-ylmethyl)-1H-pyrrolo[2,3-b]pyridine-2-carboxylate] gave an inhibition at 1 µM of 0 to 25%. Compound `CN1CC[C@H](COC(=O)c2cc3ccc(C(=N)N)cc3n2Cc2cccc3ccccc23)c2ccccc21` [Compound I-779] has an inhibition at 1 µM of 25 to 50%. With `CNC(=O)c1cc2ccc(C(=N)N)cc2n1Cc1cccc2ccccc12` [Compound I-609] the inhibition at 1 µM was 50 to 75%. For `N=C(N)c1ccc2cc(C(=O)N[C@H]3CC[C@H](N)CC3)n(Cc3ccc(Oc4ccccc4)c4ccccc34)c2c1` [Compound I-701], the inhibition at 1 µM was 75 to 100%. In the case of `N=C(N)c1ccc2cc(C(=O)OCCN)n(Cc3cccc4ccccc34)c2c1` [Compound I-745], the inhibition at 1 µM is reported as 0 to 25%. `CC(C)COC(=O)c1cc(Cn2c(C(=O)N[C@H]3CC[C@H](N)CC3)cc3ccc(C(=N)N)cc32)c2ccccc2c1` [Compound I-780] was tested, and the inhibition at 1 µM was 75 to 100%. Compound `N/C(=N/O)c1ccc2cc(C(=O)O)n(Cc3cccc4ccccc34)c2c1` [Compound I-759] has an inhibition at 1 µM of 0 to 25%. `N=C(N)c1ccc2cc(C(=O)O)n(Cc3cc(Oc4ccncc4)cc4ccccc34)c2c1` [Compound I-632] showed an inhibition at 1 µM of 50 to 75%. With `N=C(N)c1ccc2cc(C(=O)N[C@H]3CC[C@H](N)CC3)n(Cc3cc(Oc4ccccn4)cc4ccccc34)c2c1` [Compound I-599] the inhibition at 1 µM was 75 to 100%. Work on `N=C(N)c1ccc2cc(C(=O)N[C@H]3CC[C@H](N)CC3)n(Cc3cc(S(=O)(=O)c4ccccc4)cc4ccccc34)c2c1` [Compound I-727] yielded an inhibition at 1 µM of 75 to 100%. `NCc1ccc2cc(C(=O)N[C@H]3CC[C@H](N)CC3)n(Cc3cc(Oc4ccccc4)cc4ccccc34)c2c1` [Compound I-635] showed an inhibition at 1 µM of 50 to 75%. `CS(=O)(=O)N[C@H]1CC[C@@H](NC(=O)c2cc3ccc(C(=N)N)nc3n2Cc2cccc3ccccc23)CC1` [Compound I-723] showed an inhibition at 1 µM of 75 to 100%. `N=C(N)c1ccc2cc(C(=O)N[C@H]3CC[C@H](N)CC3)n(Cc3cccc4cc(-c5ccccc5)ccc34)c2c1` [Compound I-768] gave an inhibition at 1 µM of 75 to 100%. In the case of `N=C(N)c1cnc2cc(C(=O)O)n(Cc3cccc4ccccc34)c2c1` [Compound I-713], the inhibition at 1 µM is reported as 0 to 25%. Work on `CS(=O)(=O)N[C@H]1CC[C@@H](NC(=O)c2cc3ccc(C(=N)N)cc3n2Cc2cccc3ccccc23)CC1` [Compound I-728] yielded an inhibition at 1 µM of 75 to 100%.

Same assay, conditions: 1 uM compound; Assay Used = B; read-out: Mar-2 % inhibition at 1 uM
Compound `N=C(N)c1ccc2cc(C(=O)NC3CCNC(=O)C3)n(Cc3cccc4ccccc34)c2c1` (stereo not drawn) [Compound I-477] has an inhibition at 1 µM of 50 to 75%. Compound `COC(=O)NCCNC(=O)c1cc2ccc(C(=N)N)cc2n1Cc1cccc2ccccc12` [Compound I-587] has an inhibition at 1 µM of 75 to 100%. Compound `N=C(N)c1ccc2cc(C(=O)N[C@H]3CC[C@H](N)CC3)n(Cc3cncc4ccccc34)c2c1` [Compound I-507] has an inhibition at 1 µM of 50 to 75%. `CN(C)[C@H]1CC[C@H](NC(=O)c2cc3ccc(C(=N)N)cc3n2Cc2cccc3ccccc23)CC1` [Compound I-469] was tested, and the inhibition at 1 µM was 75 to 100%. `CN1CCC(NC(=O)c2cc3ccc(C(N)=O)cc3n2Cc2cccc3ccccc23)CC1` [Compound I-457] showed an inhibition at 1 µM of 0 to 25%. With `N=C(N)c1ccc2cc(C(=O)NCCCCN)n(Cc3cccc4ccccc34)c2c1` [Compound I-452] the inhibition at 1 µM was 75 to 100%. `NCCCCNC(=O)c1cc2ccc(CN)cc2n1Cc1cccc2ccccc12` [Compound I-541] was tested, and the inhibition at 1 µM was 0 to 25%. With `N=C(N)c1ccc2cc(C(=O)Nc3ccc(N4CCC(F)C4)cc3)n(Cc3cccc4ccccc34)c2c1` (stereo not drawn) [Compound I-447] the inhibition at 1 µM was 25 to 50%. For `N=C(N)c1ccc2cc(C(=O)NCc3ccc(CO)cc3)n(Cc3cccc4ccccc34)c2c1` [Compound I-435], the inhibition at 1 µM was 50 to 75%. `N=C(N)c1ccc2cc(C(=O)N[C@H]3CC[C@H](N)CC3)n(Cc3cccc(Cl)c3Cl)c2c1` [Compound I-498] was tested, and the inhibition at 1 µM was 25 to 50%. `N=C(N)c1ccc2cc(C(=O)NC3CCNCC3)n(Cc3cccc4ccccc34)c2c1` [Compound I-418, 6-carbamimidoyl-1-(naphthalen-1-ylmethyl)-N-(piperidin-4-yl)-1H-indole-2-carboxamide] was tested, and the inhibition at 1 µM was 75 to 100%. `N=C(N)c1ccc2cc(C(=O)OCc3ccccc3)n(Cc3cc(Oc4ncccn4)cc4ccccc34)c2c1` [Compound I-596] was tested, and the inhibition at 1 µM was 25 to 50%. For `N=C(N)c1ccc2cc(C(=O)O)n(Cc3cc(OCc4ncccn4)cc4ccccc34)c2c1` [Compound I-563], the inhibition at 1 µM was 50 to 75%. `COC(=O)NCCNC(=O)c1cc2ccc(C(=N)N)cc2n1Cc1cc(Oc2ncccn2)cc2ccccc12` [Compound I-564] was tested, and the inhibition at 1 µM was 75 to 100%. `N=C(N)c1ccc2cc(C(=O)NC3CCC(N4CCCC4)CC3)n(Cc3cccc4ccccc34)c2c1` (stereo not drawn) [Compound I-462] gave an inhibition at 1 µM of 75 to 100%. `N=C(N)c1ccc2cc(C(=O)NC3CCCCC3)n(Cc3cccc4ccccc34)c2c1` [Compound I-438] was tested, and the inhibition at 1 µM was 25 to 50%. `NCc1ccc2cc(C(=O)NCC3CCNCC3)n(-c3ccc4ccccc4c3)c2c1` [Compound I-537] showed an inhibition at 1 µM of 0 to 25%. `N=C(N)c1ccc2cc(S(=O)(=O)N[C@H]3CC[C@H](N)CC3)n(Cc3cccc4ccccc34)c2c1` [Compound I-522, 2-(N-((1r,4r)-4-aminocyclohexyl)sulfamoyl)-1-(naphthalen-1-ylmethyl)-1H-indole-6-carboximidamide] gave an inhibition at 1 µM of 50 to 75%. `N=C(N)c1ccc2cc(C(=O)N3CC[C@@H](N)C3)n(Cc3cccc4ccccc34)c2c1` [Compound I-446] gave an inhibition at 1 µM of 50 to 75%. In the case of `N=C(N)c1ccc2cc(-c3nc4c(s3)CCC(N)C4)n(Cc3cccc4ccccc34)c2c1` (stereo not drawn) [Compound I-528, 2-(5-amino-4,5,6,7-tetrahydrobenzo[d]thiazol-2-yl)-1-(naphthalen-1-ylmethyl)-1H-indole-6-carboximidamide], the inhibition at 1 µM is reported as 25 to 50%. In the case of `N=C(N)c1ccc2cc(CO)n(Cc3cccc4ccccc34)c2c1` [Compound I-487, 2-(hydroxymethyl)-1-(naphthalen-1-ylmethyl)-1H-indole-6-carboximidamide], the inhibition at 1 µM is reported as 50 to 75%. `N=C(N)c1ccc2cc(C(=O)NC3CC4CC3CN4)n(Cc3cccc4ccccc34)c2c1` (stereo not drawn) [Compound I-480] showed an inhibition at 1 µM of 75 to 100%. `N=C(N)c1ccc2cc(C(=O)NC3CCOCC3)n(Cc3cccc4ccccc34)c2c1` [Compound I-463] gave an inhibition at 1 µM of 50 to 75%. `CC(C)(C)OC(=O)N[C@H]1CC[C@H](NC(=O)c2cn(Cc3cccc4ccccc34)c3cc(C(=N)N)ccc23)CC1` [Compound I-518, tert-butyl ((1r,4r)-4-(6-carbamimidoyl-1-(naphthalen-1-ylmethyl)-1H-indole-3-carboxamido)cyclohexyl) carbamate] gave an inhibition at 1 µM of 0 to 25%.

Same assay, conditions: compound at 1 uM; Assay Used: B; read-out: Mar-2 % inhibition at 1 uM
Compound `COC(=O)c1cc2c(Cn3c(C(=O)N[C@H]4CC[C@H](N)CC4)cc4ccc(C(=N)N)cc43)cccc2s1` [Compound I-822] has an inhibition at 1 µM of 50 to 75%. In the case of `N=C(N)c1ccc2cc(C(=O)NCCc3c[nH]c4ccc(O)cc34)n(Cc3cc(Oc4ncccn4)cc4ccccc34)c2c1` [Compound I-826], the inhibition at 1 µM is reported as 25 to 50%. For `N=C(N)c1ccc2cc(C(=O)N[C@H]3CC[C@H](N)CC3)n(CCCc3cccc4ccccc34)c2c1` [Compound I-817], the inhibition at 1 µM was 0 to 25%.

Same assay, conditions: read-out: Mar-2 % inhibition at 1 uM
Compound `N=C(NC(=O)Oc1ccccc1)c1ccc2cc(C(=O)OCc3ccccc3)n(Cc3cc(Oc4ncccn4)cc4ccccc34)c2c1` [Compound I-576] has an inhibition at 1 µM of 0 to 25%.
